Reference: ChEMBL document CHEMBL1134098, “Bioisosteric determinants for subtype selectivity of ligands for heteromeric GABA(A) receptors” (Bioorg Med Chem Lett, 2001)

Tests used:
[1] = molecular target: GABA-A receptor; alpha-1/beta-3/gamma-2 (Homo sapiens) (UniProt P14867+P18507+P28472); assay: Maximal response relative to Gamma-aminobutyric acid A against human Gamma-aminobutyric-acid A receptor alpha-1-beta-3-gamma-2 expressed in Xenopus oocytes; assay type: functional, cell-based; details: Oocyte
[2] = molecular target: T1, GABA A receptor alpha-4/beta-3/gamma-2 (Homo sapiens, UniProt P18507+P28472+P48169); assay: Maximal response relative to Gamma-aminobutyric acid A against human Gamma-aminobutyric-acid A receptor alpha-4-beta-3-gamma-2 expressed in Xenopus oocytes; assay type: functional, cell-based; details: Oocyte
[3] = molecular target: T1, GABA A receptor alpha-4/beta-3/gamma-2; assay: Effective agonist dose for human Gamma-aminobutyric acid A receptor alpha-4-beta-3-gamma-2; assay type: functional
[4] = molecular target: T2, GABA-A receptor; alpha-5/beta-3/gamma-2 (Homo sapiens, UniProt P18507+P28472+P31644); assay: Effective agonist dose for human Gamma-aminobutyric acid A receptor alpha-5-beta-3-gamma-2 expressed in Xenopus oocytes; assay type: functional, cell-based, Oocyte
T2 sequence (P18507 whole entry): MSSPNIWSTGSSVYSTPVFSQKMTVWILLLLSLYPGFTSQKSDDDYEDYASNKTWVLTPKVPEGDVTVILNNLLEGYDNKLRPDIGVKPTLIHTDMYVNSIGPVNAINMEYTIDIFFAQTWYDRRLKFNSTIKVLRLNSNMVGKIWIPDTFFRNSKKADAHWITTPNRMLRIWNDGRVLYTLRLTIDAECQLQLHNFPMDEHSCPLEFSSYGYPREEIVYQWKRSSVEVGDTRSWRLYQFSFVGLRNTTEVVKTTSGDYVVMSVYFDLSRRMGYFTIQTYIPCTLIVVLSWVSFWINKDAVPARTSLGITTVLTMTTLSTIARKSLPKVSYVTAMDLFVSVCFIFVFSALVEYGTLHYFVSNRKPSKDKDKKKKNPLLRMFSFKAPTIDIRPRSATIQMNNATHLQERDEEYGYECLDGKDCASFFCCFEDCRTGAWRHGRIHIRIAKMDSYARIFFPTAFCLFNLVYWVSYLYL
T2 sequence (P28472 whole entry): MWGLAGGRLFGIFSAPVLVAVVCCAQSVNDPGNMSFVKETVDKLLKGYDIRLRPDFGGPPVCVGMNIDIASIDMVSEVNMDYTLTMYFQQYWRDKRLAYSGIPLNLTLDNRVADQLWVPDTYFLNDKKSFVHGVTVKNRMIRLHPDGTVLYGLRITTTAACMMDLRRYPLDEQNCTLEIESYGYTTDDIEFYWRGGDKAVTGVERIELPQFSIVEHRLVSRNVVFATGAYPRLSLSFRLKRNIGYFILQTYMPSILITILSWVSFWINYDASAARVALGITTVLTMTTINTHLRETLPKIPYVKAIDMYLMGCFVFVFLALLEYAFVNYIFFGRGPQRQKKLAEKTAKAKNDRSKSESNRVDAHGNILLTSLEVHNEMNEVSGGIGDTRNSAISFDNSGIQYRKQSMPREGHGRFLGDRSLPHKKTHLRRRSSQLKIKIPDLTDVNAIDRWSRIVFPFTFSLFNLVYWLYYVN
T2 sequence (P31644 whole entry): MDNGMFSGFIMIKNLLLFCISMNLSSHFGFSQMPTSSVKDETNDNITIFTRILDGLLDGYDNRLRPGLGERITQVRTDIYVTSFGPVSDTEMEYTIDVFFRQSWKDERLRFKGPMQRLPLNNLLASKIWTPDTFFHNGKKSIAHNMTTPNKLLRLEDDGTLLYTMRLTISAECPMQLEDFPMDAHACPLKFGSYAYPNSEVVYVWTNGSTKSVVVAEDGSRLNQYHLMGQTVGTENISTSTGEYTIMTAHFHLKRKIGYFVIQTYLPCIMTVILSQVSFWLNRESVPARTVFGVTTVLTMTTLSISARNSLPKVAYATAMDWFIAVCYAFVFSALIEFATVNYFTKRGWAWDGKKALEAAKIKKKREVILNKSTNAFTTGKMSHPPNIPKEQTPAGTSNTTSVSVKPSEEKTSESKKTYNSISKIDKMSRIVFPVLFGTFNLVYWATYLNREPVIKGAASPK

[5] = molecular target: T3, GABA-A receptor; alpha-2/beta-3/gamma-2 (Homo sapiens, UniProt P18507+P28472+P47869); assay: Agonist activity on human Gamma-aminobutyric acid A receptor alpha-2-beta-3-gamma-2 expressed in Xenopus oocytes; assay type: functional, cell-based, Oocyte
T3 sequence (P18507 whole entry): T2 sequence (P18507 whole entry)
T3 sequence (P28472 whole entry): T2 sequence (P28472 whole entry)
T3 sequence (P47869 whole entry): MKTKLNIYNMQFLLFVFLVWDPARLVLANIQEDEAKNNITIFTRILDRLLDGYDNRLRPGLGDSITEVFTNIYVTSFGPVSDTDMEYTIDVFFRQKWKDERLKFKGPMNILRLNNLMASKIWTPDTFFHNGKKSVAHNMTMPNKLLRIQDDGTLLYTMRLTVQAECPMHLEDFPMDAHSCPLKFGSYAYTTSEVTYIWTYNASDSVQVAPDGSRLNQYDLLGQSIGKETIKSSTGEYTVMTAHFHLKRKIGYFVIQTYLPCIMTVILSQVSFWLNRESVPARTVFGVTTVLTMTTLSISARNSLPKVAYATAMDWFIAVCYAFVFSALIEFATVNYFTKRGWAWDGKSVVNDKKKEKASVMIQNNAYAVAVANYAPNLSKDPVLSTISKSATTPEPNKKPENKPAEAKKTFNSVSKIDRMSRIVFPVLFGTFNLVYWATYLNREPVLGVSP

[6] = molecular target: GABA-A receptor; alpha-3/beta-3/gamma-2 (Homo sapiens) (UniProt P18507+P28472+P34903); assay: Maximal response relative to Gamma-aminobutyric acid A against human Gamma-aminobutyric-acid A receptor alpha-3-beta-3-gamma-2 expressed in Xenopus oocytes; assay type: functional, cell-based; details: Oocyte
[7] = molecular target: T4, GABA-A receptor; alpha-6/beta-3/gamma-2 (Homo sapiens, UniProt P18507+P28472+Q16445); assay: Maximal response relative to Gamma-aminobutyric acid A against human Gamma-aminobutyric-acid A receptor alpha-6-beta-3-gamma-2 expressed in Xenopus oocytes; assay type: functional, cell-based; details: Oocyte
[8] = molecular target: T4, GABA-A receptor; alpha-6/beta-3/gamma-2; assay: Effective agonist dose for human Gamma-aminobutyric acid A receptor alpha-6-beta-3-gamma-2; assay type: functional
[9] = molecular target: T5, GABA-A receptor; alpha-1/beta-3/gamma-2 (Homo sapiens, UniProt P14867+P18507+P28472); assay: Effective agonist dose for human Gamma-aminobutyric acid A receptor alpha-1-beta-3-gamma-2 expressed in Xenopus oocytes; assay type: functional, cell-based, Oocyte
T5 sequence (P14867 whole entry): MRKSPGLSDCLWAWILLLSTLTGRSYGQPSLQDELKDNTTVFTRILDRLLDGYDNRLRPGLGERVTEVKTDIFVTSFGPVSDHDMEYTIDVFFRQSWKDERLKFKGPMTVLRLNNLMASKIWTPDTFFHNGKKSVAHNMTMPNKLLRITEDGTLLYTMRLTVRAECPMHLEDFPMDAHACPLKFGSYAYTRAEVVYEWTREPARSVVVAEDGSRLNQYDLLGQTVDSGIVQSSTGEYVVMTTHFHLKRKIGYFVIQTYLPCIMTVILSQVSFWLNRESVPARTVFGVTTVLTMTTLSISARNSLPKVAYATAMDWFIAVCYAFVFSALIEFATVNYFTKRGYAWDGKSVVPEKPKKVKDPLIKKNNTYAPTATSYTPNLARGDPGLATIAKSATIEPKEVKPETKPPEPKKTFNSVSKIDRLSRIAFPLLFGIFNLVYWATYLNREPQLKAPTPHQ
T5 sequence (P18507 whole entry): T2 sequence (P18507 whole entry)
T5 sequence (P28472 whole entry): T2 sequence (P28472 whole entry)

[10] = molecular target: GABA-A receptor; alpha-5/beta-3/gamma-2 (Homo sapiens) (UniProt P18507+P28472+P31644); assay: Maximal response relative to Gamma-aminobutyric acid A against human Gamma-aminobutyric-acid A receptor alpha-5-beta-3-gamma-2 expressed in Xenopus oocytes; assay type: functional, cell-based; details: Oocyte
[11] = molecular target: GABA-A receptor; alpha-2/beta-3/gamma-2 (Homo sapiens) (UniProt P18507+P28472+P47869); assay: Maximal response relative to Gamma-aminobutyric acid A against human Gamma-aminobutyric-acid A receptor alpha-2-beta-3-gamma-2 expressed in Xenopus oocytes; assay type: functional, cell-based; details: Oocyte
[12] = molecular target: T6, GABA-A receptor; alpha-3/beta-3/gamma-2 (Homo sapiens, UniProt P18507+P28472+P34903); assay: Agonist activity on human Gamma-aminobutyric acid A receptor alpha-3-beta-3-gamma-2 expressed in Xenopus oocytes; assay type: functional, cell-based, Oocyte
T6 sequence (P18507 whole entry): T2 sequence (P18507 whole entry)
T6 sequence (P28472 whole entry): T2 sequence (P28472 whole entry)
T6 sequence (P34903 whole entry): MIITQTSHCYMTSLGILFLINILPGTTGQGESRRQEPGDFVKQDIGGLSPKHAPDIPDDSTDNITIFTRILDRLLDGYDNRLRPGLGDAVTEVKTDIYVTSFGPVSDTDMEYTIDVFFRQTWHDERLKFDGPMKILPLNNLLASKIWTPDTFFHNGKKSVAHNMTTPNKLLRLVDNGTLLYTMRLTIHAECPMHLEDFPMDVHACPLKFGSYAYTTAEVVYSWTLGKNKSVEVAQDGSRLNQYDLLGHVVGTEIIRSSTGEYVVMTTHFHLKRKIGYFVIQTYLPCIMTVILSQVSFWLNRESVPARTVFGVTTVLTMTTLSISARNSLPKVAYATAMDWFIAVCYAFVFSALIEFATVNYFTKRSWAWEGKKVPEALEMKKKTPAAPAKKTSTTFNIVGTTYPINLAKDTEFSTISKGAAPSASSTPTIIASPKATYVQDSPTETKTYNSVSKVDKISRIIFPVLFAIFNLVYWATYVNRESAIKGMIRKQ

[13] = molecular target: T6, GABA-A receptor; alpha-3/beta-3/gamma-2; assay: Antagonistic potency against human Gamma-aminobutyric acid A receptor alpha-3-beta-3-gamma-2 expressed in Xenopus oocytes at 1 mM; assay type: functional, cell-based, Oocyte
[14] = molecular target: T4, GABA-A receptor; alpha-6/beta-3/gamma-2; assay: Antagonistic potency against human Gamma-aminobutyric acid A receptor alpha-6-beta-3-gamma-2 expressed in Xenopus oocytes at 1 mM; assay type: functional, cell-based, Oocyte
[15] = molecular target: T2, GABA-A receptor; alpha-5/beta-3/gamma-2; assay: Antagonistic potency against human Gamma-aminobutyric acid A receptor alpha-5-beta-3-gamma-2 expressed in Xenopus oocytes at 1 mM; assay type: functional, cell-based, Oocyte
[16] = molecular target: T1, GABA A receptor alpha-4/beta-3/gamma-2; assay: Antagonistic potency against human […] Gamma-aminobutyric acid A receptor alpha-4-beta-3-gamma-2; assay type: functional
[17] = molecular target: T5, GABA-A receptor; alpha-1/beta-3/gamma-2; assay: Antagonistic potency against human Gamma-aminobutyric acid A receptor alpha-1-beta-3-gamma-2 expressed in Xenopus oocytes at 1 mM; assay type: functional, cell-based, Oocyte
[18] = molecular target: T3, GABA-A receptor; alpha-2/beta-3/gamma-2; assay: Antagonistic potency against human Gamma-aminobutyric acid A receptor alpha-2-beta-3-gamma-2 expressed in Xenopus oocytes at 1 mM; assay type: functional, cell-based, Oocyte
[19] = molecular target: T3, GABA-A receptor; alpha-2/beta-3/gamma-2; assay: Effective dose for agonist activity on human Gamma-aminobutyric acid A receptor alpha-2-beta-3-gamma-2 in Xenopus oocytes; assay type: functional, cell-based, Oocyte
[20] = molecular target: T6, GABA-A receptor; alpha-3/beta-3/gamma-2; assay: Effective dose for agonist activity on activity on human Gamma-aminobutyric acid A receptor alpha-3-beta-3-gamma-2 expressed in Xenopus oocytes; assay type: functional, cell-based, Oocyte

T1 sequence (P48169 whole entry, one chain of several): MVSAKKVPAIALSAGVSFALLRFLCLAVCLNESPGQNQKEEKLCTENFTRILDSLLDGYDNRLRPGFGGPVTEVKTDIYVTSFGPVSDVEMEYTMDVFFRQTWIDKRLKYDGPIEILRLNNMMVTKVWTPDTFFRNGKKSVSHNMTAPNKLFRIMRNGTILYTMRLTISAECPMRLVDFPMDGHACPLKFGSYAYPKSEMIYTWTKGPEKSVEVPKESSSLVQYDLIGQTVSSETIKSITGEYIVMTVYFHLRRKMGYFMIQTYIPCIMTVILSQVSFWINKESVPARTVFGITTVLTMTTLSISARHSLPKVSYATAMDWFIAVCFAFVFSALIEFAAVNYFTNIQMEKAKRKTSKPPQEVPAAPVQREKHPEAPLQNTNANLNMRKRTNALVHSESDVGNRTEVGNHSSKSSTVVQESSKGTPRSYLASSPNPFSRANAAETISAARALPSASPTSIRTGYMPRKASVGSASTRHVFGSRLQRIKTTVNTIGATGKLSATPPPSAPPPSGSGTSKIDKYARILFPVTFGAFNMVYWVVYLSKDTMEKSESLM
T4 sequence (Q16445 whole entry, one chain of several): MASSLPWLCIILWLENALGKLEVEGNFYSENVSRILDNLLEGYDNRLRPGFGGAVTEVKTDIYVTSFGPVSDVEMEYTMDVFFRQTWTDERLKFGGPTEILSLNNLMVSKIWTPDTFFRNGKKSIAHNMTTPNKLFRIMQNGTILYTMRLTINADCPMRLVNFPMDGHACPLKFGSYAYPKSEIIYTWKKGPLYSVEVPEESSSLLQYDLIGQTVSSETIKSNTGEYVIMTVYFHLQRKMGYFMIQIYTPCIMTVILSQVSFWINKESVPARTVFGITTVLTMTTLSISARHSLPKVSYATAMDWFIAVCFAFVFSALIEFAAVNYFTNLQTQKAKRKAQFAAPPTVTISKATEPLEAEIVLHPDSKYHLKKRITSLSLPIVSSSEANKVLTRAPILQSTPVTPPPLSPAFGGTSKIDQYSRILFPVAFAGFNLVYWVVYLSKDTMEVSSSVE

EC50 [20] [µM] | Compound | Max [1] | Max [2] | EC50 [3] [µM] | EC50 [4] [µM] | EC50 [5] [µM] | Max [6] | Max [7] | EC50 [8] [µM] | EC50 [9] [µM] | Max [10] | Max [11] | EC50 [12] [µM] | Ki [13] [µM] | Ki [14] [µM] | Ki [15] [µM] | Ki [16] [µM] | Ki [17] [µM] | Ki [18] [µM] | EC50 [19] [µM]
– | O=C(O)Cc1c[nH]cn1 [IMIDAZOLE ACETIC ACID] | 24 | 27 | 340 | 420 | 600 | 54 | 25 | 460 | 310 | 56 | 72 | 300 | – | – | – | – | – | – | –
– | O=C(O)C1=CCNCC1 [ISOGUVACINE] | 88 | 88 | 180 | 75 | 50 | 69 | 98 | 20 | 160 | 94 | 88 | 55 | – | – | – | – | – | – | –
– | O=[PH](O)C1(O)CCNCC1 | – | – | – | – | – | – | – | – | – | – | – | – | 4900 | 3000 | 1900 | 2100 | 1400 | 1500 | –
– | NCCCC(=O)O | 100 | 100 | – | – | – | 100 | 100 | – | – | 100 | 100 | – | – | – | – | – | – | – | –
– | NCCC[Se](=O)O | 30 | 16 | 2100 | 1900 | 1500 | 33 | 51 | 3000 | 1400 | 58 | 47 | 4900 | – | – | – | – | – | – | –
– | O=P(O)(O)C1CCNCC1 | – | – | – | – | – | – | – | – | – | – | – | – | 3800 | 4800 | 2800 | 3100 | 3300 | 2100 | –
– | O=[PH](O)C1CCNCC1 | 5 | 0 | 140 | 260 | 280 | 29 | 35 | 140 | 270 | 17 | 17 | 160 | – | – | – | – | – | – | –
– | CP(=O)(O)C1CCNCC1 | – | – | – | – | – | – | – | – | – | – | – | – | 300 | 460 | 420 | 340 | 310 | 600 | –
– | O=[Se](O)C1CCNCC1 | 3 | 0 | 160 | 420 | – | 28 | 13 | 240 | 200 | 3 | 2 | 180 | – | – | – | – | – | – | 170
– | O=S(=O)(O)C1CCNCC1 | 21 | 7.2 | 200 | 20 | 26 | 75 | 15 | 20 | 40 | 92 | 96 | 65 | – | – | – | – | – | – | –
370 | O=C(O)C1CCNCC1 [ISONIPECOTIC ACID] | 46 | 104 | 300 | 690 | 420 | 46 | 83 | 160 | 620 | 57 | 53 | – | – | – | – | – | – | – | –
